Source: patent publication US4156724A, “N-acylamino-alpha-arylacetamido cephalosporins and antibacterial compositions and methods containing them” (Sumitomo Chemical Company, Limited, priority 1974, dated 1979)
In brackets after ≈: the same amount, converted by molar mass.

Assays:
Format in all cases: cell-based
[1] = tested on: Staphylococcus aureus FS 289; assay: Minimum Inhibitory Concentration, Staphylococcus aureus FS 289; conditions: FS289; Staphylococcus aureus FS 289, strain resistant to penicillin; read-out: Minimum Inhibitory Concentration
Procedure: (§1) anti-microbial activity tests were carried out on the compounds obtained in the Examples.
*Staphylococcus aureus FS 289: strain resistant to penicillin

Proteus vulgaris HX 19 = assay: Minimum Inhibitory Concentration, Proteus vulgaris HX 19; conditions: HX19; Proteus vulgaris HX 19; read-out: Minimum Inhibitory Concentration
Procedure: as §1

Serratia No. 72 = assay: Minimum Inhibitory Concentration, Serratia No. 72
Procedure: as §1

[2] = tested on: Enterobacter aerogeneus No. 75; assay: Minimum Inhibitory Concentration, Enterobacter aerogeneus No. 75; conditions: Enterobacter aerogeneus No. 75; read-out: Minimum Inhibitory Concentration
Procedure: as §1

[3] = tested on: Staphylococcus aureus 209 P; assay: Minimum Inhibitory Concentration, Staphylococcus aureus 209 P; conditions: Staphylococcus aureus 209 P; read-out: Minimum Inhibitory Concentration
Procedure: as §1

Escherichia coli NIHJ = assay: Minimum Inhibitory Concentration, Escherichia coli NIHJ; conditions: Escherichia coli NIHJ; read-out: Minimum Inhibitory Concentration
Procedure: as §1

[4] = tested on: Pseudomonas aeruginosa 104; assay: Minimum Inhibitory Concentration, Pseudomonas aeruginosa 104; conditions: Pseudomonas aeruginosa 104; read-out: Minimum Inhibitory Concentration
Procedure: as §1

[5] = tested on: Klebsiella pneumoniae 602; assay: Minimum Inhibitory Concentration, Klebsiella pneumoniae 602; conditions: Klebsiella pneumoniae, 602, Klebsiella pneumoniae 602; read-out: Minimum Inhibitory Concentration
Procedure: as §1

Compound | MIC [1] [µg/mL] | MIC (Proteus vulgaris HX 19) [µg/mL] | MIC (Serratia No. 72) [µg/mL] | MIC [2] [µg/mL] | MIC [3] [µg/mL] | MIC (Escherichia coli NIHJ) [µg/mL] | MIC [4] [µg/mL] | MIC [5] [µg/mL]
CC(=O)OCC1=C(C(=O)O)N2C(=O)C(NC(=O)C(NC(=O)c3ccnnc3O)c3ccc(CO)cc3)C2SC1 (stereo not drawn) [Example 92] | 6.25 (≈ 11.2 µM) | 0.39 (≈ 0.7 µM) | > 200 | 25 (≈ 44.8 µM) | 0.78 (≈ 1.4 µM) | 25 (≈ 44.8 µM) | 12.5 (≈ 22.4 µM) | 12.5 (≈ 22.4 µM)
Cc1nnc(SCC2=C(C(=O)O)N3C(=O)C(NC(=O)C(NC(=O)c4ccnnc4O)c4ccc(CO)cc4)C3SC2)s1 (stereo not drawn) [Example 93] | 12.5 (≈ 19.9 µM) | 0.2 (≈ 0.318 µM) | 50 (≈ 79.4 µM) | 25 (≈ 39.7 µM) | 0.78 (≈ 1.24 µM) | 12.5 (≈ 19.9 µM) | 12.5 (≈ 19.9 µM) | 12.5 (≈ 19.9 µM)
Cn1nnnc1SCC1=C(C(=O)O)N2C(=O)C(NC(=O)C(NC(=O)c3cncnc3O)c3ccc(CO)cc3)C2SC1 (stereo not drawn) [Example 94] | 12.5 (≈ 20.4 µM) | 0.78 (≈ 1.27 µM) | 50 (≈ 81.5 µM) | 25 (≈ 40.7 µM) | 0.78 (≈ 1.27 µM) | 25 (≈ 40.7 µM) | 25 (≈ 40.7 µM) | 12.5 (≈ 20.4 µM)
O=C(O)C1=C(CSc2nncs2)CSC2C(NC(=O)C(NC(=O)c3cncnc3O)c3ccc(CO)cc3)C(=O)N12 (stereo not drawn) [Example 95] | 12.5 (≈ 20.3 µM) | 0.78 (≈ 1.27 µM) | 50 (≈ 81.2 µM) | 25 (≈ 40.6 µM) | 0.78 (≈ 1.27 µM) | 25 (≈ 40.6 µM) | 25 (≈ 40.6 µM) | 12.5 (≈ 20.3 µM)
Cc1nnc(SCC2=C(C(=O)O)N3C(=O)C(NC(=O)C(NC(=O)c4cnc5cccnc5c4O)c4ccc(CO)cc4)C3SC2)s1 (stereo not drawn) [Example 96] | 6.25 (≈ 9.19 µM) | 0.2 (≈ 0.294 µM) | 12.5 (≈ 18.4 µM) | 6.25 (≈ 9.19 µM) | 1.56 (≈ 2.29 µM) | 3.13 (≈ 4.6 µM) | 6.25 (≈ 9.19 µM) | 1.56 (≈ 2.29 µM)
Cn1nnnc1SCC1=C(C(=O)O)N2C(=O)C(NC(=O)C(NC(=O)c3cnc4cccnc4c3O)c3ccc(CO)cc3)C2SC1 (stereo not drawn) [Example 97] | 6.25 (≈ 9.42 µM) | 0.2 (≈ 0.301 µM) | 25 (≈ 37.7 µM) | 6.25 (≈ 9.42 µM) | 1.56 (≈ 2.35 µM) | 1.56 (≈ 2.35 µM) | 6.25 (≈ 9.42 µM) | 1.56 (≈ 2.35 µM)
O=C(O)C1=C(CSc2cnn[nH]2)CSC2C(NC(=O)C(NC(=O)c3cnc4cccnc4c3O)c3ccc(CO)cc3)C(=O)N12 (stereo not drawn) [Example 98] | 6.25 (≈ 9.63 µM) | 0.2 (≈ 0.308 µM) | 25 (≈ 38.5 µM) | 6.25 (≈ 9.63 µM) | 1.56 (≈ 2.4 µM) | 1.56 (≈ 2.4 µM) | 6.25 (≈ 9.63 µM) | 1.56 (≈ 2.4 µM)
CC(=O)OCC1=C(C(=O)O)N2C(=O)C(NC(=O)C(NC(=O)c3cnc4nc(C)ccc4c3O)c3ccc(CO)cc3)C2SC1 (stereo not drawn) [Example 99] | 6.25 (≈ 10.1 µM) | 0.78 (≈ 1.25 µM) | 50 (≈ 80.4 µM) | 12.5 (≈ 20.1 µM) | 1.56 (≈ 2.51 µM) | 6.25 (≈ 10.1 µM) | 12.5 (≈ 20.1 µM) | 6.25 (≈ 10.1 µM)
Cc1ccc2c(O)c(C(=O)NC(C(=O)NC3C(=O)N4C(C(=O)O)=C(CSc5nnc(C)s5)CSC34)c3ccc(CO)cc3)cnc2n1 (stereo not drawn) [Example 100] | 6.25 (≈ 9.01 µM) | 0.39 (≈ 0.562 µM) | 50 (≈ 72.1 µM) | 6.25 (≈ 9.01 µM) | 1.56 (≈ 2.25 µM) | 3.13 (≈ 4.51 µM) | 6.25 (≈ 9.01 µM) | 6.25 (≈ 9.01 µM)
O=C(O)C1=C(CSc2ccc(O)nn2)CSC2C(NC(=O)C(NC(=O)c3cnc4cccnc4c3O)c3ccc(CO)cc3)C(=O)N12 (stereo not drawn) [Example 102] | 6.25 (≈ 9.25 µM) | 0.39 (≈ 0.577 µM) | 25 (≈ 37 µM) | 12.5 (≈ 18.5 µM) | 1.56 (≈ 2.31 µM) | 3.13 (≈ 4.63 µM) | 6.25 (≈ 9.25 µM) | 3.13 (≈ 4.63 µM)
O=C(O)C1=C(CSc2nnc(CO)s2)CSC2C(NC(=O)C(NC(=O)c3cnc4cccnc4c3O)c3ccc(CO)cc3)C(=O)N12 (stereo not drawn) [Example 103] | 6.25 (≈ 8.98 µM) | 0.2 (≈ 0.287 µM) | 12.5 (≈ 18 µM) | 12.5 (≈ 18 µM) | 1.56 (≈ 2.24 µM) | 3.13 (≈ 4.5 µM) | 6.25 (≈ 8.98 µM) | 3.13 (≈ 4.5 µM)
CSc1cnc2c(O)c(C(=O)NC(C(=O)NC3C(=O)N4C(C(=O)O)=C(CSc5nnc(C)s5)CSC34)c3ccc(CO)cc3)cnc2n1 (stereo not drawn) [Example 104] | 6.25 (≈ 8.6 µM) | 0.39 (≈ 0.537 µM) | 12.5 (≈ 17.2 µM) | 12.5 (≈ 17.2 µM) | 1.56 (≈ 2.15 µM) | 6.25 (≈ 8.6 µM) | 6.25 (≈ 8.6 µM) | 3.13 (≈ 4.31 µM)
Cc1nc2ncc(C(=O)NC(C(=O)NC3C(=O)N4C(C(=O)O)=C(CSc5nnnn5C)CSC34)c3ccc(CO)cc3)c(O)c2nc1C (stereo not drawn) [Example 105] | 6.25 (≈ 9.02 µM) | 0.2 (≈ 0.289 µM) | 12.5 (≈ 18 µM) | 12.5 (≈ 18 µM) | 0.78 (≈ 1.13 µM) | 6.25 (≈ 9.02 µM) | 6.25 (≈ 9.02 µM) | 3.13 (≈ 4.52 µM)
COc1ccc2ncc(C(=O)NC(C(=O)NC3C(=O)N4C(C(=O)O)=C(CSc5cnn[nH]5)CSC34)c3ccc(CO)cc3)c(O)c2n1 (stereo not drawn) [Example 106] | 6.25 (≈ 9.21 µM) | 0.2 (≈ 0.295 µM) | 12.5 (≈ 18.4 µM) | 6.25 (≈ 9.21 µM) | 1.56 (≈ 2.3 µM) | 3.13 (≈ 4.61 µM) | 6.25 (≈ 9.21 µM) | 1.56 (≈ 2.3 µM)
Cc1nnc(SCC2=C(C(=O)O)N3C(=O)C(NC(=O)C(NC(=O)c4cnc5ccc(N(C)C)nc5c4O)c4ccc(CO)cc4)C3SC2)s1 (stereo not drawn) [Example 107] | 6.25 (≈ 8.65 µM) | 0.1 (≈ 0.138 µM) | 12.5 (≈ 17.3 µM) | 6.25 (≈ 8.65 µM) | 1.56 (≈ 2.16 µM) | 3.13 (≈ 4.33 µM) | 6.25 (≈ 8.65 µM) | 1.56 (≈ 2.16 µM)
Cn1nnnc1SCC1=C(C(=O)O)N2C(=O)C(NC(=O)C(NC(=O)c3cnc4cncnc4c3O)c3ccc(CO)cc3)C2SC1 (stereo not drawn) [Example 108] | 12.5 (≈ 18.8 µM) | 0.2 (≈ 0.301 µM) | 25 (≈ 37.6 µM) | 6.25 (≈ 9.4 µM) | 1.56 (≈ 2.35 µM) | 3.13 (≈ 4.71 µM) | 6.25 (≈ 9.4 µM) | 3.13 (≈ 4.71 µM)
CSc1ncc2c(O)c(C(=O)NC(C(=O)NC3C(=O)N4C(C(=O)O)=C(CSc5nnnn5C)CSC34)c3ccc(CO)cc3)cnc2n1 (stereo not drawn) [Example 109] | 12.5 (≈ 17.6 µM) | 0.78 (≈ 1.1 µM) | 50 (≈ 70.3 µM) | 12.5 (≈ 17.6 µM) | 1.56 (≈ 2.19 µM) | 6.25 (≈ 8.79 µM) | 12.5 (≈ 17.6 µM) | 6.25 (≈ 8.79 µM)
O=C(O)C1=C(CSc2nnc(CO)s2)CSC2C(NC(=O)C(NC(=O)c3cnccc3O)c3ccc(CO)cc3)C(=O)N12 (stereo not drawn) [Example 110] | 6.25 (≈ 9.69 µM) | 0.39 (≈ 0.605 µM) | 100 (≈ 155 µM) | 25 (≈ 38.8 µM) | 0.78 (≈ 1.21 µM) | 12.5 (≈ 19.4 µM) | 12.5 (≈ 19.4 µM) | 12.5 (≈ 19.4 µM)
O=C(O)C1=C(CSc2ccc(O)nn2)CSC2C(NC(=O)C(NC(=O)c3cnccc3O)c3ccc(CO)cc3)C(=O)N12 (stereo not drawn) [Example 111] | 6.25 (≈ 10 µM) | 0.39 (≈ 0.624 µM) | 100 (≈ 160 µM) | 12.5 (≈ 20 µM) | 0.78 (≈ 1.25 µM) | 12.5 (≈ 20 µM) | 12.5 (≈ 20 µM) | 6.25 (≈ 10 µM)
Cn1nnnc1SCC1=C(C(=O)O)N2C(=O)C(NC(=O)C(NC(=O)c3cccnc3O)c3ccc(CO)cc3)C2SC1 (stereo not drawn) [Example 112] | 12.5 (≈ 20.4 µM) | 0.78 (≈ 1.27 µM) | 100 (≈ 163 µM) | 25 (≈ 40.8 µM) | 0.78 (≈ 1.27 µM) | 12.5 (≈ 20.4 µM) | 12.5 (≈ 20.4 µM) | 6.25 (≈ 10.2 µM)
CC(=O)OCC1=C(C(=O)O)N2C(=O)C(NC(=O)[C@H](NC(=O)c3cnccc3O)c3ccc(O)cc3)C2SC1 (stereo partly drawn) [Example 113, 7-[D-α-(4-Hydroxypyridine-3-carbonamido)-α-p-hydroxyphenylacetamido]cephalosporanic Acid] | 3.13 (≈ 5.77 µM) | 0.2 (≈ 0.369 µM) | > 200 | 25 (≈ 46.1 µM) | 0.39 (≈ 0.719 µM) | 12.5 (≈ 23 µM) | 6.25 (≈ 11.5 µM) | 12.5 (≈ 23 µM)
